For 25 compounds, IC50 results are on record in patent publication US10729691B2, “Treatment of infectious diseases with glucose uptake inhibitors” (Kadmon Corporation LLC, priority 2015, dated 2020).

Molecules are shown by their SMILES. Counter-ions that a name gives are not always drawn.

A word on the IC50: it is the concentration at which inhibition is half-maximal. A higher IC50 goes with lower potency.

For the assay, the system named is P. falciparum-infected RBCs. Description: Glycolysis IC50 / lactate excretion assay in P. falciparum-infected RBCs. Type of assay: cell-based. Conditions: Plasmodium falciparum. The method, then:
The cultures were harvested and DNA quantitated using the standard Sybr Green I fluorescence assay. […] The culture medium was harvested and extracellular lactic acid was quantified by LC-MS.
P. falciparum (HB-3 strain) cultures were maintained in standard culture conditions. […] Parasites were grown in O+ donor blood, 2% hematocrit.
Parasite cultures were seeded in 96-well plates (1% hematocrit, 1-2% starting parasitemia, 100 μL total volume) with varying concentrations of the test compounds in a final concentration of 0.1% DMSO. Plates were cultured for 48 hours before harvesting the culture medium for LC-MS analysis. At harvest, thin smears were taken and examined microscopically to observe any alterations in parasite morphology.
Culture medium samples were diluted in 9 volumes of methanol containing U-^13C-glucose and 1-^13C-lactate (final concentration 0.25 mM each). The samples were clarified by centrifugation at 13,000 RCF for 10 minutes. […] Mobile phase A was acetonitrile, and mobile phase B was 20 mM ammonium acetate (pH 9.4).
The sample was analyzed on an Exactive mass spectrometer (Thermo Scientific) to determine the chromatographic peak areas the analytes and internal standards. Glucose and lactate were quantified by taking the ratio of the unlabeled peak area to the area of the isotope-labeled standard.
On to `CC(C)NC(=O)COc1cccc(-c2nc3c(c(Nc4ccc(-c5cn[nH]c5)cc4)n2)CN(C(=O)C(C)C)CC3)c1` [Example 1, 2-(3-(4-((4-(1H-pyrazol-4-yl)phenyl)amino)-6-isobutyryl-5,6,7,8-tetrahydropyrido[4,3-d]pyrimidin-2-yl)phenoxy)-N-isopropylacetamide], for which the IC50 lay in the range of 0.01 to 0.1 µM.

The compound `CC(C)NC(=O)COc1cccc(-c2nc3c(c(Nc4ccc(-c5cn[nH]c5)cc4)n2)COC3)c1` [Example 2, 2-(3-(4-((4-(1H-pyrazol-4-yl)phenyl)amino)-5,7-dihydrofuro[3,4-d]pyrimidin-2-yl)phenoxy)-N-isopropylacetamide] displayed an IC50 of 0.101 to 0.25 µM.

In turn, `O=C(COc1cccc(-c2nc(Nc3ccc(-c4cn[nH]c4)cc3)c3sccc3n2)c1)NC1CC1` [Example 5] had an IC50 of 0.251 to 0.5 µM.

Compound `O=C(COc1cccc(-c2nc(Nc3ccc(-c4cn[nH]c4)cc3)c3occc3n2)c1)NC1CCCC1` [Example 9] came in with an IC50 of 0.251 to 0.5 µM.

`Cn1cnc2c(Nc3ccc(-c4cn[nH]c4)cc3)nc(-c3cccc(OCC(=O)NC4CCC4)c3)nc21` [Example 11] showed a half-maximal inhibitory concentration (IC50) of 0.101 to 0.25 µM.

The compound `O=C(COc1cccc(-c2nc3c(c(Nc4ccc(-c5cn[nH]c5)cc4)n2)COC3)c1)NC1CCC1` [Example 12] had an IC50 of 0.101 to 0.25 µM.

In turn, `O=C(COc1cccc(-c2nc3c(c(Nc4ccc(-c5cn[nH]c5)cc4)n2)COC3)c1)NC1CCCC1` [Example 13] had an IC50 of 0.101 to 0.25 µM.

Compound `CC(C)CNC(=O)COc1cccc(-c2nc(Nc3ccc(-c4cn[nH]c4)cc3)c3ncccc3n2)c1` [Example 14, 2-(3-(4-((4-(1H-pyrazol-4-yl)phenyl)amino)pyrido[3,2-d]pyrimidin-2-yl)phenoxy)-N-isobutylacetamide] showed an IC50 of 0.251 to 0.5 µM.

Compound `Cn1ncc2c(Nc3ccc(-c4cn[nH]c4)cc3)nc(-c3cccc(OCC(=O)NC4CCC4)c3)nc21` [Example 15, 2-(3-(4-((4-(1H-pyrazol-4-yl)phenyl)amino)-1-methyl-1H-pyrazolo[3,4-d]pyrimidin-6-yl)phenoxy)-N-cyclobutylacetamide] showed a half-inhibitory concentration (IC50) of 0.101 to 0.25 µM.

Take `CC(C)NC(=O)COc1cccc(-c2nc(Nc3ccc(-c4cn[nH]c4)cc3)c3cnn(C)c3n2)c1` [Example 16, 2-(3-(4-((4-(1H-pyrazol-4-yl)phenyl)amino)-1-methyl-1H-pyrazolo[3,4-d]pyrimidin-6-yl)phenoxy)-N-isopropylacetamide]: the concentration for half-maximal inhibition (IC50) is 0.01 to 0.1 µM.

For the compound `Cn1ncc2c(Nc3ccc(-c4cn[nH]c4)cc3)nc(-c3cccc(OCC(=O)NC4CCCC4)c3)nc21` [Example 17, 2-(3-(4-((4-(1H-pyrazol-4-yl)phenyl)amino)-1-methyl-1H-pyrazolo[3,4-d]pyrimidin-6-yl)phenoxy)-N-cyclopentylacetamide], the 50% inhibitory concentration (IC50) was in the range of 0.101 to 0.25 µM.

On to `CC(C)CNC(=O)COc1cccc(-c2nc(Nc3ccc(-c4cn[nH]c4)cc3)c3cnn(C)c3n2)c1` [Example 18, 2-(3-(4-((4-(1H-pyrazol-4-yl)phenyl)amino)-1-methyl-1H-pyrazolo[3,4-d]pyrimidin-6-yl)phenoxy)-N-isobutylacetamide], for which the IC50 lay within 0.01 to 0.1 µM.

`CC(C)NC(=O)COc1cccc(-c2nc(Nc3ccc(-c4cn[nH]c4)cc3)c3ccncc3n2)c1` [Example 19, 2-(3-(4-((4-(1H-pyrazol-4-yl)phenyl)amino)pyrido[3,4-d]pyrimidin-2-yl)phenoxy)-N-isopropylacetamide] yielded an IC50 of 0.101 to 0.25 µM.

For the compound `O=C(COc1cccc(-c2nc(Nc3ccc(-c4cn[nH]c4)cc3)c3ccncc3n2)c1)NC1CCC1` [Example 20, 2-(3-(4-((4-(1H-pyrazol-4-yl)phenyl)amino)pyrido[3,4-d]pyrimidin-2-yl)phenoxy)-N-cyclobutylacetamide], the IC50 was 0.101 to 0.25 µM.

`O=C(COc1cccc(-c2nc(Nc3ccc(-c4cn[nH]c4)cc3)c3ccncc3n2)c1)NC1CCCC1` [Example 21, 2-(3-(4-((4-(1H-pyrazol-4-yl)phenyl)amino)pyrido[3,4-d]pyrimidin-2-yl)phenoxy)-N-cyclopentylacetamide] came in with an IC50 of 0.101 to 0.25 µM.

Compound `CC(C)NC(=O)COc1cccc(-c2nc(Nc3ccc(-c4cn[nH]c4)cc3)c3ncsc3n2)c1` [Example 22, 2-(3-(7-((4-(1H-pyrazol-4-yl)phenyl)amino)thiazolo[5,4-d]pyrimidin-5-yl)phenoxy)-N-isopropylacetamide] came in with an IC50 of 0.251 to 0.5 µM.

Turning to `O=C(COc1cccc(-c2nc(Nc3ccc(-c4cn[nH]c4)cc3)c3ncsc3n2)c1)NC1CCC1` [Example 23, 2-(3-(7-((4-(1H-pyrazol-4-yl)phenyl)amino)thiazolo[5,4-d]pyrimidin-5-yl)phenoxy)-N-cyclobutylacetamide], the IC50 lay in the range of 0.251 to 0.5 µM.

Compound `O=C(COc1cccc(-c2nc(Nc3ccc(-c4cn[nH]c4)cc3)c3ncsc3n2)c1)NC1CCCC1` [Example 24, 2-(3-(7-((4-(1H-pyrazol-4-yl)phenyl)amino)thiazolo[5,4-d]pyrimidin-5-yl)phenoxy)-N-cyclopentylacetamide] gave an IC50 of 0.251 to 0.5 µM.

The compound `CC(C)CNC(=O)COc1cccc(-c2nc(Nc3ccc(-c4cn[nH]c4)cc3)c3ncsc3n2)c1` [Example 25, 2-(3-(7-((4-(1H-pyrazol-4-yl)phenyl)amino)thiazolo[5,4-d]pyrimidin-5-yl)phenoxy)-N-isobutylacetamide] displayed a concentration for half-maximal inhibition (IC50) of 0.251 to 0.5 µM.

Turning to `CC(C)(C)NC(=O)COc1cccc(-c2nc3c(c(Nc4ccc(-c5cn[nH]c5)cc4)n2)COC3)c1` [Example 26, 2-(3-(4-((4-(1H-pyrazol-4-yl)phenyl)amino)-5,7-dihydrofuro[3,4-d]pyrimidin-2-yl)phenoxy)-N-(tert-butyl)acetamide dihydrochloride], the IC50 is 0.101 to 0.25 µM.

`CCC(CC)NC(=O)COc1cccc(-c2nc3c(c(Nc4ccc(-c5cn[nH]c5)cc4)n2)COC3)c1` [Example 27, 2-(3-(4-((4-(1H-pyrazol-4-yl)phenyl)amino)-5,7-dihydrofuro[3,4-d]pyrimidin-2-yl)phenoxy)-N-(pentan-3-yl)acetamide dihydrochloride] registered a 50% inhibitory concentration (IC50) of 0.01 to 0.1 µM.

As for `CCC(C)NC(=O)COc1cccc(-c2nc3c(c(Nc4ccc(-c5cn[nH]c5)cc4)n2)COC3)c1` (stereo not shown) [Example 28, 2-(3-(4-((4-(1H-pyrazol-4-yl)phenyl)amino)-5,7-dihydrofuro[3,4-d]pyrimidin-2-yl)phenoxy)-N-(sec-butyl)acetamide], the IC50 is 0.01 to 0.1 µM.

`CC(C)CNC(=O)COc1cccc(-c2nc3c(c(Nc4ccc(-c5cn[nH]c5)cc4)n2)COC3)c1` [Example 29, 2-(3-(4-((4-(1H-pyrazol-4-yl)phenyl)amino)-5,7-dihydrofuro[3,4-d]pyrimidin-2-yl)phenoxy)-N-isobutylacetamide] showed an IC50 of 0.101 to 0.25 µM.

As to `CC(C)(C)CNC(=O)COc1cccc(-c2nc3c(c(Nc4ccc(-c5cn[nH]c5)cc4)n2)COC3)c1` [Example 30, 2-(3-(4-((4-(1H-pyrazol-4-yl)phenyl)amino)-5,7-dihydrofuro[3,4-d]pyrimidin-2-yl)phenoxy)-N-neopentylacetamide], the IC50 is 0.101 to 0.25 µM.

`O=C(COc1cccc(-c2nc3c(c(Nc4ccc(-c5cn[nH]c5)cc4)n2)COC3)c1)NC1CC(F)(F)C1` [Example 32, 2-(3-(4-((4-(1H-pyrazol-4-yl)phenyl)amino)-5,7-dihydrofuro[3,4-d]pyrimidin-2-yl)phenoxy)-N-(3,3-difluorocyclobutyl)acetamide] gave a half-maximal inhibitory concentration (IC50) of 0.251 to 0.5 µM.
